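1) Cells in 96-well plates. 2) Compound, 48 h, 5 concentrations. 3) Linear interpolation between surrounding doses. 4) Unreached endpoint = highest concentration. TGI marks complete inhibition of growth.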
Columns and labels:
Assay in all cases: growth of human tumour cells (NCI), 48 h
HCC-2998 colon = tested on: HCC-2998 colon
CCRF-CEM leukemia = tested on: CCRF-CEM leukemia
MOLT-4 leukemia = tested on: MOLT-4 leukemia
NCI-H522 lung = tested on: NCI-H522 lung
SW-620 colon = tested on: SW-620 colon
CAKI-1 renal = tested on: CAKI-1 renal
SNB-19 CNS = tested on: SNB-19 CNS
SF-539 CNS = tested on: SF-539 CNS
MDA-N = tested on: MDA-N
K-562 leukemia = tested on: K-562 leukemia
MALME-3M melanoma = tested on: MALME-3M melanoma
NCI/ADR-RES ovarian = tested on: NCI/ADR-RES ovarian
IGROV1 ovarian = tested on: IGROV1 ovarian
OVCAR-4 ovarian = tested on: OVCAR-4 ovarian
HT29 colon = tested on: HT29 colon
HOP-62 NSCLC = tested on: HOP-62 NSCLC
HCT-116 colon = tested on: HCT-116 colon
UACC-257 melanoma = tested on: UACC-257 melanoma
OVCAR-8 ovarian = tested on: OVCAR-8 ovarian
MDA-MB-231 breast = tested on: MDA-MB-231 breast
OVCAR-5 ovarian = tested on: OVCAR-5 ovarian
SN12C renal = tested on: SN12C renal
786-0 renal = tested on: 786-0 renal
ACHN renal = tested on: ACHN renal
SF-268 CNS = tested on: SF-268 CNS
M14 melanoma = tested on: M14 melanoma
HL-60(TB) leukemia = tested on: HL-60(TB) leukemia
PC-3 prostate = tested on: PC-3 prostate
SK-MEL-2 melanoma = tested on: SK-MEL-2 melanoma
SK-OV-3 ovarian = tested on: SK-OV-3 ovarian
LOX IMVI melanoma = tested on: LOX IMVI melanoma
MCF7 breast = tested on: MCF7 breast
T-47D breast = tested on: T-47D breast
SR leukemia = tested on: SR leukemia
SK-MEL-28 melanoma = tested on: SK-MEL-28 melanoma
U251 CNS = tested on: U251 CNS
MDA-MB-435 = tested on: MDA-MB-435
SNB-75 CNS = tested on: SNB-75 CNS
TK-10 renal = tested on: TK-10 renal
RPMI-8226 leukemia = tested on: RPMI-8226 leukemia
EKVX NSCLC = tested on: EKVX NSCLC
SK-MEL-5 melanoma = tested on: SK-MEL-5 melanoma
NCI-H460 lung = tested on: NCI-H460 lung
NCI-H226 lung = tested on: NCI-H226 lung
KM12 colon = tested on: KM12 colon
OVCAR-3 ovarian = tested on: OVCAR-3 ovarian
DU-145 prostate = tested on: DU-145 prostate
NCI-H23 lung = tested on: NCI-H23 lung
HCT-15 colon = tested on: HCT-15 colon
UO-31 renal = tested on: UO-31 renal
UACC-62 melanoma = tested on: UACC-62 melanoma
HOP-92 NSCLC = tested on: HOP-92 NSCLC
A549 NSCLC = tested on: A549 NSCLC
RXF 393 renal = tested on: RXF 393 renal
COLO 205 colon = tested on: COLO 205 colon
A498 renal = tested on: A498 renal
SF-295 CNS = tested on: SF-295 CNS

With `COc1ccc2cc(C(=O)Nc3ccc(O)c(C(=O)O)c3)ccc2c1OC` the TGI (HCC-2998 colon) was > 100 µM, the TGI (CCRF-CEM leukemia) was > 100 µM and the TGI (MOLT-4 leukemia) was > 100 µM. For the same compound, the TGI (NCI-H522 lung) was > 100 µM, the TGI (SW-620 colon) was > 100 µM and the TGI (CAKI-1 renal) was > 100 µM. For the same compound, the TGI (SNB-19 CNS) was > 100 µM, the TGI (SF-539 CNS) was > 100 µM and the TGI (MDA-N) was > 100 µM. For the same compound, the TGI (K-562 leukemia) was > 100 µM, the TGI (MALME-3M melanoma) was > 100 µM and the TGI (NCI/ADR-RES ovarian) was > 100 µM. For the same compound, the TGI (IGROV1 ovarian) was > 100 µM, the TGI (OVCAR-4 ovarian) was > 100 µM and the TGI (HT29 colon) was > 100 µM. The TGI (HOP-62 NSCLC) was > 100 µM, the TGI (HCT-116 colon) was > 100 µM and the TGI (UACC-257 melanoma) was > 100 µM. The TGI (OVCAR-8 ovarian) was > 100 µM, the TGI (MDA-MB-231 breast) was > 100 µM and the TGI (OVCAR-5 ovarian) was > 100 µM. For the same compound, the TGI (SN12C renal) was > 100 µM, the TGI (786-0 renal) was > 100 µM and the TGI (ACHN renal) was > 100 µM. The TGI (SF-268 CNS) was > 100 µM, the TGI (M14 melanoma) was > 100 µM and the TGI (HL-60(TB) leukemia) was > 100 µM. For the same compound, the TGI (PC-3 prostate) was > 100 µM, the TGI (SK-MEL-2 melanoma) was > 100 µM and the TGI (SK-OV-3 ovarian) was > 100 µM. For the same compound, the TGI (LOX IMVI melanoma) was > 100 µM, the TGI (MCF7 breast) was > 100 µM and the TGI (T-47D breast) was > 100 µM. For the same compound, the TGI (SR leukemia) was > 100 µM, the TGI (SK-MEL-28 melanoma) was > 100 µM and the TGI (U251 CNS) was > 100 µM. For the same compound, the TGI (MDA-MB-435) was > 100 µM, the TGI (SNB-75 CNS) was > 100 µM and the TGI (TK-10 renal) was > 100 µM. The TGI (RPMI-8226 leukemia) was > 100 µM, the TGI (EKVX NSCLC) was > 100 µM and the TGI (SK-MEL-5 melanoma) was > 100 µM. For the same compound, the TGI (NCI-H460 lung) was > 100 µM, the TGI (NCI-H226 lung) was > 100 µM and the TGI (KM12 colon) was > 100 µM. For the same compound, the TGI (OVCAR-3 ovarian) was > 100 µM, the TGI (DU-145 prostate) was > 100 µM and the TGI (NCI-H23 lung) was > 100 µM. The TGI (HCT-15 colon) was > 100 µM, the TGI (UO-31 renal) was > 100 µM and the TGI (UACC-62 melanoma) was > 100 µM.

With `O=C1C(=O)c2c(O)ccc(O)c2C(O)=C1Cl` the TGI (HCC-2998 colon) was > 100 µM, the TGI (CCRF-CEM leukemia) was > 100 µM and the TGI (SW-620 colon) was > 100 µM. For the same compound, the TGI (HOP-92 NSCLC) was > 100 µM, the TGI (CAKI-1 renal) was > 100 µM and the TGI (SNB-19 CNS) was > 100 µM. For the same compound, the TGI (SF-539 CNS) was > 100 µM, the TGI (MDA-N) was > 100 µM and the TGI (K-562 leukemia) was > 100 µM. For the same compound, the TGI (MALME-3M melanoma) was 78.3 µM, the TGI (NCI/ADR-RES ovarian) was > 100 µM and the TGI (IGROV1 ovarian) was > 100 µM. The TGI (OVCAR-4 ovarian) was > 100 µM, the TGI (HT29 colon) was > 100 µM and the TGI (HOP-62 NSCLC) was > 100 µM. The TGI (HCT-116 colon) was > 100 µM, the TGI (UACC-257 melanoma) was > 100 µM and the TGI (A549 NSCLC) was > 100 µM. For the same compound, the TGI (OVCAR-8 ovarian) was > 100 µM, the TGI (MDA-MB-231 breast) was > 100 µM and the TGI (OVCAR-5 ovarian) was > 100 µM. For the same compound, the TGI (RXF 393 renal) was > 100 µM, the TGI (786-0 renal) was > 100 µM and the TGI (SF-268 CNS) was > 100 µM. The TGI (M14 melanoma) was > 100 µM, the TGI (HL-60(TB) leukemia) was > 100 µM and the TGI (PC-3 prostate) was > 100 µM. For the same compound, the TGI (COLO 205 colon) was > 100 µM, the TGI (MCF7 breast) was > 100 µM and the TGI (T-47D breast) was > 100 µM. The TGI (SR leukemia) was > 100 µM, the TGI (SK-MEL-28 melanoma) was > 100 µM and the TGI (A498 renal) was > 100 µM. For the same compound, the TGI (U251 CNS) was > 100 µM, the TGI (SF-295 CNS) was > 100 µM and the TGI (SNB-75 CNS) was > 100 µM. For the same compound, the TGI (TK-10 renal) was > 100 µM, the TGI (RPMI-8226 leukemia) was > 100 µM and the TGI (EKVX NSCLC) was > 100 µM. The TGI (SK-MEL-5 melanoma) was > 100 µM, the TGI (NCI-H460 lung) was > 100 µM and the TGI (KM12 colon) was > 100 µM. The TGI (OVCAR-3 ovarian) was > 100 µM, the TGI (DU-145 prostate) was > 100 µM and the TGI (NCI-H23 lung) was > 100 µM. For the same compound, the TGI (HCT-15 colon) was > 100 µM, the TGI (UO-31 renal) was > 100 µM and the TGI (UACC-62 melanoma) was > 100 µM.
